Patent US5254801A, “Heterologous dominant conditional lethal gene which is a phosphonate monoester hydrolase and use thereof in plants” (Monsanto Company, priority 1990, dated 1993)

Tests used:
LBAA = experiment: In vivo (3-14C-) glyceryl glyphosate hydrolysis assay in whole cells; assay type: cell-based; conditions: strain LBAA; three hour incubation, 30° C.
Experimental: (§1) Bacteria which grew in this medium using glyceryl glyphosate as a sole phosphate source had the ability to cleave both the ester and the phosphonate bond to release the free phosphate. For these bacteria to be useful in the present invention, the first step in the mineralization of glyceryl glyphosate needed is the hydrolysis of the phosphonate ester. Each of the three bacteria which utilized glyceryl glyphosate as a phosphate source were then assayed for a phosphonate monoester hydrolase activity using an in vivo (3-^14 C-) glyceryl glyphosate assay. A 150 ml culture of each bacteria was grown in DF minimal medium with 0.2 mM HK2 PO4 as a phosphate source in a 500 ml flask, 30° C., with shaking. The bacteria were pelleted by centrifugation at 5,000×g for 10 min and resuspended at 10 mg fresh weight/ml. An assay mix included 50 μl cells plus 10 μl (3-^14 C-) glyceryl glyphosate (10,000 cpm/μl) and kept at 30° C. with shaking. After a three hour incubation period, the cells were pelleted in a microfuge and the supernatant injected onto an HPLC anion exchange column and glyphosate analyzed as described above. The pellet was washed twice with 1 ml 10 mM HEPES, pH 7.0, and resuspended in 25 μl buffer. The cells were lysed with 25 μl quench and the debris pelleted in a microfuge. The pellet extract was then analyzed for glyphosate product as described above. […]

T10 = experiment: as above; assay type: cell-based; conditions: strain T10; three hour incubation, 30° C.
Experimental: as §1

[1] = test system: GUS vector control Arabidopsis calli; experiment: Callus viability on SIM medium with glyceryl glyphosate; assay type: cell-based
Experimental: (§2) Arabidopsis was cultured and transformed essentially as described by Valvekens et al., 1988. Arabidopsis ecotype RLD seeds were sterilized in 5% chlorox, 0.05%. Tween20 for 20 min, washed with sterile H2 O and plated on MSO medium (MS salts with minimal organics (Sigma), 0.5 g MES/l pH 5.7, 1% sucrose and 0.8% agar). After 3 weeks the roots were cut away from the shoots and precultured 3 days on callus inducing medium (CIM; Gamborg's B5 salts (Sigma), 2% glucose, 0.5 g/l MES, pH 5.7, 0.8% agar, 0.5 mg/l 2,4-D and 0.05 mg/l kinetin). The roots were than grouped in small bundles of 5-7 roots and cut into 0.5 cm pieces. The root pieces were mixed with a fresh overnight culture of ABI Agrobacterium containing a previously described plant gene expression vector diluted 1:20 in liquid MSO (without agar). After two minutes, the roots were transferred to fresh CIM plates for a two day co-culture. After co-culture, the root pieces were washed 2X with liquid MSO medium and plated on shoot inducing medium (SIM; Gamborg's B5 salts, 2% glucose, 0.5 g/l MES, pH 5.7, 5 mg/l N^6 -(2-isopentenyl)adenine, 0.15 mg/l indole-3-acetic acid, 500 mg/l carbenicillin, 100 mg/l kanamycin and 0.8% agar. Callus which continued to grow and remain green were transformed to fresh SIM after two weeks. As rosettes began to form, they were cut away from the callus and transferred to MSO medium with 1 mg/l indole-3-butyric acid in sterile sundae cups to initiate root formation. After the plants had formed roots they were transferred to soil and grown to maturity to obtain seed.
(§3) Arabidopsis calli transformed with either pMON9429 or pMON9443 which were expressing the selectable marker NPT-II gene as evidenced by growth on 100 μg/ml kanamycin were then evaluated for pehA expression. The calli were transferred to SIM medium containing 100 μg/ml kanamycin and 1 mM glyceryl glyphosate. After 4 weeks, calli were scored for growth and ability to initiate shoots and leaves (+) or for necrosis (-).

[2] = test system: pMON9429 transgenic Arabidopsis calli (pehA:1); experiment: as above; assay type: cell-based
Experimental: as §2, §3

[3] = test system: pMON9443 transgenic Arabidopsis calli (pehA:2); experiment: as above; assay type: cell-based
Experimental: as §2, §3

Arabidopsis callus = assay type: cell-based
[4] = Translocation of radiolabelled compound applied to tomato leaves; assay type: in vivo; conditions: tissues analysed after two days
Experimental: The critical tests for a prophytotoxin to be used in negative selection, cell ablation and as a gametocide are that the compound is non-phytotoxic per se but can be hydrolyzed into a phytotoxin by the phosphonate monoester hydrolase protein. The most general and specific method to determine if a protoxin is hydrolyzed to a toxic form of glyphosate is a HPLC assay. The compounds are dissolved at 100 mM concentration in a suitable buffer such as 10 mM TAPS, (N-Tris(hydroxymethyl)methyl-2-aminopropane sulfonic acid) pH 9.0. Triplicate samples (0.1 ml) of the compound are then diluted with 0.9 ml of 10 mM TAPS, pH 9.0 and with 0.9 ml 10 mM TAPS, pH 9.0 plus one unit (1 μmol/min) of enzyme. After 24 hour incubation at 25° C., the samples are injected onto a HPLC column for glyphosate analysis. […] The protoxin and glyphosate are separated on an anion exchange column. the glyphosate is oxidized as it elutes in the presence of bleach and is then derivatized by o-pthaldehyde to a fluorescent derivative which can be quantitatively measured by a fluorescence monitor. […] After two days, the plant is dissected into individual tissues and the amount of protoxin in each tissue determined. […] The tissue samples were then combusted and the amount of radiolabelled compound in each tissue determined by scintillation counting.

[5] = test system: E. coli MM294, JM101, JM101/MPU+, SR200/MPU; experiment: In vivo (3-14C-) glyceryl glyphosate hydrolysis assay in whole cells; assay type: cell-based; conditions: E. coli strains; three hour incubation, 30° C.
[6] = 1 mM glyceryl glyphosate, 4 weeks, 12 lines scored
[7] = 1 mM glyceryl glyphosate, 4 weeks, 6 lines scored

Compound: O=C(O)CNCP(=O)(O)OCC(O)CO (centres unmarked) [glyceryl glyphosate, glycine, N-([hydroxy (2,3 dihydroxy propoxy)phosphonyl]methyl)]
- In vivo Hydrolysis of Glyceryl Glyphosate into Glyphosate (LBAA): Yes
- In vivo Hydrolysis of Glyceryl Glyphosate into Glyphosate (T10): Yes
- Viability Score: Growth [1, 6]: 12 number of lines
- Viability Score: Necrosis [1, 6]: 0 number of lines
- Callus growth on protoxin (in words) ([1]; 1 mM protoxin, control calli): able to grow
- Viability Score: Growth [2, 7]: 1 number of lines
- Viability Score: Necrosis [2, 7]: 5 number of lines
- Callus phenotype on protoxin (in words) ([2]; medium containing glyceryl glyphosate, pMON9429 calli): lethality
- Viability Score: Growth [3, 7]: 0 number of lines
- Viability Score: Necrosis [3, 7]: 6 number of lines
- Callus phenotype on protoxin (in words) ([3]; medium containing glyceryl glyphosate, pMON9443 calli): lethality
- Cytotoxicity (Arabidopsis callus): relatively non-cytotoxic
- Translocation to developing anthers [4]: translocates to developing anthers
- In vivo Hydrolysis of Glyceryl Glyphosate into Glyphosate [5]: No
